# Experimental data as given in the supplement of paper PMC10307832.
# Tests used:
# Test in all cases: relative viability (nuclei count vs DMSO), 5 days (fraction); higher = more cells survive
# NCI-H1734 = system: NCI-H1734
# Method in brief: (§1)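 Lung cancer cell lines, seeded in 1536-well plates, were treated the following day by pin tool with a single drug or with five library-drug doses (not always all listed) in √10 steps on top of a fixed anchor-drug dose. Cells were fixed and nuclei stained in one step after 5 days, and nuclei were counted. Relative viability is the nuclei count for treated wells divided by that for vehicle wells, reported as medians of duplicate plates.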
# HCC-15 = system: HCC-15
# Method in brief: as §1
# NCI-H520 = system: NCI-H520
# Method in brief: as §1
# H3255 = system: H3255
# Method in brief: as §1
# HCC-827 = system: HCC-827
# Method in brief: as §1
# CAL-12T = system: CAL-12T
# Method in brief: as §1
# NCI-H322M = system: NCI-H322M
# Method in brief: as §1
# LK-2 = system: LK-2
# Method in brief: as §1
# EKVX = system: EKVX
# Method in brief: as §1
# SK-MES-1 = system: SK-MES-1
# Method in brief: as §1
# NCI-H1437 = system: NCI-H1437
# Method in brief: as §1
# PC-3 [JPC-3] = system: PC-3 [JPC-3]
# Method in brief: as §1
# PC-14 = system: PC-14
# Method in brief: as §1
# NCI-H2228 = system: NCI-H2228
# Method in brief: as §1
# ABC-1 = system: ABC-1
# Method in brief: as §1
# NCI-H1651 = system: NCI-H1651
# Method in brief: as §1
# NCI-H661 = system: NCI-H661
# Method in brief: as §1
# RERF-LC-KJ = system: RERF-LC-KJ
# Method in brief: as §1
# NCI-H1355 = system: NCI-H1355
# Method in brief: as §1
# NCI-H1650 = system: NCI-H1650
# Method in brief: as §1
# SW 1573 = system: SW 1573
# Method in brief: as §1
# COR-L23 = system: COR-L23
# Method in brief: as §1
# NCI-H2405 = system: NCI-H2405
# Method in brief: as §1
compound,measurement,setting,value
C[C@@H]1CN(CC(=O)Nc2ccc3c(c2)Cc2cccc(-c4cc(=O)cc(N5CCOCC5)o4)c2S3)C[C@H](C)O1 + O=C(c1cc(Cc2n[nH]c(=O)c3ccccc23)ccc1F)N1CCN(C(=O)C2CC2)CC1 [Olaparib] (partner 8 µM),relative viability,NCI-H1734; first compound 0.04 µM,0.73
same,relative viability,NCI-H1734; first compound 0.1265 µM,0.573
same,relative viability,NCI-H1734; first compound 0.4 µM,0.613
same,relative viability,NCI-H1734; first compound 4 µM,0.551
same,relative viability,HCC-15; first compound 0.04 µM,0.722
same,relative viability,HCC-15; first compound 0.1265 µM,0.658
same,relative viability,HCC-15; first compound 0.4 µM,0.586
same,relative viability,HCC-15; first compound 4 µM,0.286
same,relative viability,NCI-H520; first compound 0.04 µM,0.43
same,relative viability,NCI-H520; first compound 0.1265 µM,0.308
same,relative viability,NCI-H520; first compound 0.4 µM,0.31
same,relative viability,NCI-H520; first compound 4 µM,0.202
same,relative viability,H3255; first compound 0.04 µM,0.554
same,relative viability,H3255; first compound 0.1265 µM,0.532
same,relative viability,H3255; first compound 0.4 µM,0.522
same,relative viability,H3255; first compound 4 µM,0.452
same,relative viability,HCC-827; first compound 0.04 µM,0.674
same,relative viability,HCC-827; first compound 0.1265 µM,0.653
same,relative viability,HCC-827; first compound 0.4 µM,0.678
same,relative viability,HCC-827; first compound 4 µM,0.438
same,relative viability,CAL-12T; first compound 0.04 µM,0.81
same,relative viability,CAL-12T; first compound 0.1265 µM,0.739
same,relative viability,CAL-12T; first compound 0.4 µM,0.656
same,relative viability,CAL-12T; first compound 4 µM,0.168
same,relative viability,NCI-H322M; first compound 0.04 µM,0.632
same,relative viability,NCI-H322M; first compound 0.1265 µM,0.794
same,relative viability,NCI-H322M; first compound 0.4 µM,0.81
same,relative viability,NCI-H322M; first compound 4 µM,0.643
same,relative viability,LK-2; first compound 0.04 µM,0.852
same,relative viability,LK-2; first compound 0.1265 µM,0.724
same,relative viability,LK-2; first compound 0.4 µM,0.575
same,relative viability,LK-2; first compound 4 µM,0.321
same,relative viability,EKVX; first compound 0.04 µM,0.862
same,relative viability,EKVX; first compound 0.1265 µM,0.921
same,relative viability,EKVX; first compound 0.4 µM,0.914
same,relative viability,EKVX; first compound 4 µM,0.399
same,relative viability,SK-MES-1; first compound 0.04 µM,0.78
same,relative viability,SK-MES-1; first compound 0.1265 µM,0.721
same,relative viability,SK-MES-1; first compound 0.4 µM,0.686
same,relative viability,SK-MES-1; first compound 4 µM,0.252
same,relative viability,NCI-H1437; first compound 0.04 µM,0.613
same,relative viability,NCI-H1437; first compound 0.1265 µM,0.635
same,relative viability,NCI-H1437; first compound 0.4 µM,0.598
same,relative viability,NCI-H1437; first compound 4 µM,0.352
same,relative viability,PC-3 [JPC-3]; first compound 0.04 µM,1.17
same,relative viability,PC-3 [JPC-3]; first compound 0.1265 µM,1.08
same,relative viability,PC-3 [JPC-3]; first compound 0.4 µM,1.16
same,relative viability,PC-3 [JPC-3]; first compound 4 µM,0.608
same,relative viability,PC-14; first compound 0.04 µM,0.249
same,relative viability,PC-14; first compound 0.1265 µM,0.169
same,relative viability,PC-14; first compound 0.4 µM,0.205
same,relative viability,PC-14; first compound 4 µM,0.09
same,relative viability,NCI-H2228; first compound 0.04 µM,0.781
same,relative viability,NCI-H2228; first compound 0.1265 µM,0.505
same,relative viability,NCI-H2228; first compound 0.4 µM,0.571
same,relative viability,NCI-H2228; first compound 4 µM,0.174
same,relative viability,ABC-1; first compound 0.04 µM,0.729
same,relative viability,ABC-1; first compound 0.1265 µM,1.22
same,relative viability,ABC-1; first compound 0.4 µM,0.804
same,relative viability,ABC-1; first compound 4 µM,1.08
same,relative viability,NCI-H1651; first compound 0.04 µM,0.173
same,relative viability,NCI-H1651; first compound 0.1265 µM,0.167
same,relative viability,NCI-H1651; first compound 0.4 µM,0.178
same,relative viability,NCI-H1651; first compound 4 µM,0.139
same,relative viability,NCI-H661; first compound 0.04 µM,0.814
same,relative viability,NCI-H661; first compound 0.1265 µM,0.77
same,relative viability,NCI-H661; first compound 0.4 µM,0.784
same,relative viability,NCI-H661; first compound 4 µM,0.622
same,relative viability,RERF-LC-KJ; first compound 0.04 µM,0.917
same,relative viability,RERF-LC-KJ; first compound 0.1265 µM,0.984
same,relative viability,RERF-LC-KJ; first compound 0.4 µM,1.01
same,relative viability,RERF-LC-KJ; first compound 4 µM,0.323
same,relative viability,NCI-H1355; first compound 0.04 µM,0.783
same,relative viability,NCI-H1355; first compound 0.1265 µM,0.699
same,relative viability,NCI-H1355; first compound 0.4 µM,0.664
same,relative viability,NCI-H1355; first compound 4 µM,0.482
same,relative viability,NCI-H1650; first compound 0.04 µM,0.731
same,relative viability,NCI-H1650; first compound 0.1265 µM,0.713
same,relative viability,NCI-H1650; first compound 0.4 µM,0.967
same,relative viability,NCI-H1650; first compound 4 µM,0.282
same,relative viability,SW 1573; first compound 0.04 µM,0.553
same,relative viability,SW 1573; first compound 0.1265 µM,0.546
same,relative viability,SW 1573; first compound 0.4 µM,0.495
same,relative viability,SW 1573; first compound 4 µM,0.21
same,relative viability,COR-L23; first compound 0.04 µM,0.39
same,relative viability,COR-L23; first compound 0.1265 µM,0.329
same,relative viability,COR-L23; first compound 0.4 µM,0.323
same,relative viability,COR-L23; first compound 4 µM,0.185
same,relative viability,NCI-H2405; first compound 0.04 µM,0.938
same,relative viability,NCI-H2405; first compound 0.1265 µM,0.93
same,relative viability,NCI-H2405; first compound 0.4 µM,0.837
same,relative viability,NCI-H2405; first compound 4 µM,0.578
CC(C)Oc1cc(Nc2nc(N[C@@H](C)c3ccc(F)cn3)ncc2Cl)n[nH]1 [AZ23] + CC(=O)c1c(C)c2cnc(Nc3ccc(N4CCNCC4)cn3)nc2n(C2CCCC2)c1=O [Palbociclib] (partner 0.5 µM),relative viability,NCI-H1734; first compound 0.01 µM,0.317
same,relative viability,NCI-H1734; first compound 0.03162 µM,0.366
same,relative viability,NCI-H1734; first compound 0.3162 µM,0.359
same,relative viability,HCC-15; first compound 0.01 µM,0.881
same,relative viability,HCC-15; first compound 0.03162 µM,0.757
same,relative viability,HCC-15; first compound 0.3162 µM,0.799
same,relative viability,NCI-H520; first compound 0.01 µM,0.236
same,relative viability,NCI-H520; first compound 0.03162 µM,0.193
same,relative viability,NCI-H520; first compound 0.3162 µM,0.177
same,relative viability,H3255; first compound 0.01 µM,0.31
same,relative viability,H3255; first compound 0.03162 µM,0.318
same,relative viability,H3255; first compound 0.3162 µM,0.295
same,relative viability,HCC-827; first compound 0.01 µM,0.47
same,relative viability,HCC-827; first compound 0.03162 µM,0.535
same,relative viability,HCC-827; first compound 0.3162 µM,0.471
same,relative viability,CAL-12T; first compound 0.03162 µM,0.285
same,relative viability,CAL-12T; first compound 0.3162 µM,0.414
same,relative viability,NCI-H322M; first compound 0.01 µM,0.446
same,relative viability,NCI-H322M; first compound 0.03162 µM,0.472
same,relative viability,NCI-H322M; first compound 0.3162 µM,0.485
same,relative viability,LK-2; first compound 0.03162 µM,0.544
same,relative viability,LK-2; first compound 0.3162 µM,0.678
same,relative viability,EKVX; first compound 0.01 µM,0.392
same,relative viability,EKVX; first compound 0.03162 µM,0.414
same,relative viability,EKVX; first compound 0.3162 µM,0.358
same,relative viability,SK-MES-1; first compound 0.03162 µM,0.291
same,relative viability,SK-MES-1; first compound 0.3162 µM,0.328
same,relative viability,NCI-H1437; first compound 0.01 µM,0.304
same,relative viability,NCI-H1437; first compound 0.03162 µM,0.324
same,relative viability,NCI-H1437; first compound 0.3162 µM,0.335
same,relative viability,PC-3 [JPC-3]; first compound 0.01 µM,0.552
same,relative viability,PC-3 [JPC-3]; first compound 0.03162 µM,0.611
same,relative viability,PC-3 [JPC-3]; first compound 0.3162 µM,0.536
same,relative viability,PC-14; first compound 0.01 µM,0.492
same,relative viability,PC-14; first compound 0.03162 µM,0.567
same,relative viability,PC-14; first compound 0.3162 µM,0.577
same,relative viability,NCI-H2228; first compound 0.01 µM,0.809
same,relative viability,NCI-H2228; first compound 0.03162 µM,0.811
same,relative viability,NCI-H2228; first compound 0.3162 µM,0.907
same,relative viability,ABC-1; first compound 0.01 µM,0.765
same,relative viability,ABC-1; first compound 0.03162 µM,0.82
same,relative viability,ABC-1; first compound 0.3162 µM,0.694
same,relative viability,NCI-H1651; first compound 0.01 µM,0.523
same,relative viability,NCI-H1651; first compound 0.03162 µM,0.526
same,relative viability,NCI-H1651; first compound 0.3162 µM,0.505
same,relative viability,NCI-H661; first compound 0.01 µM,0.367
same,relative viability,NCI-H661; first compound 0.03162 µM,0.391
same,relative viability,NCI-H661; first compound 0.3162 µM,0.349
same,relative viability,RERF-LC-KJ; first compound 0.01 µM,1.13
same,relative viability,RERF-LC-KJ; first compound 0.03162 µM,1.14
same,relative viability,RERF-LC-KJ; first compound 0.3162 µM,1.14
same,relative viability,NCI-H1355; first compound 0.01 µM,0.437
same,relative viability,NCI-H1355; first compound 0.03162 µM,0.455
same,relative viability,NCI-H1355; first compound 0.3162 µM,0.375
same,relative viability,NCI-H1650; first compound 0.01 µM,0.303
same,relative viability,NCI-H1650; first compound 0.03162 µM,0.439
same,relative viability,NCI-H1650; first compound 0.3162 µM,0.378
same,relative viability,SW 1573; first compound 0.01 µM,0.58
same,relative viability,SW 1573; first compound 0.03162 µM,0.467
same,relative viability,SW 1573; first compound 0.3162 µM,0.394
same,relative viability,COR-L23; first compound 0.01 µM,0.239
same,relative viability,COR-L23; first compound 0.03162 µM,0.301
same,relative viability,COR-L23; first compound 0.3162 µM,0.254
same,relative viability,NCI-H2405; first compound 0.01 µM,0.585
same,relative viability,NCI-H2405; first compound 0.03162 µM,0.52
same,relative viability,NCI-H2405; first compound 0.3162 µM,0.589
